Measurements from patent US8828401B2, “Cytotoxic peptides and antibody drug conjugates thereof” (Pfizer Inc., priority 2011, dated 2014).
Starred links: 1 amine or outer side, 2 acyl side, 3 side chain; linkers in the order of their positions; H or OH if unused. Non-standard residues stand in square brackets, D forms with d. Residues, ends and D or L forms follow the SMILES beside them. *: point of attachment. Dolaproine = CO[C@@H]([C@@H]1CCCN1)[C@@H](C)C(=O)O; X12 = O=C([C@@H](N[*:1])[C@@H]1Cc2ccccc21)[*:2]; Dil = CC[C@H](C)[C@H](NC)[C@@H](CC(=O)O)OC; Phe(4-NH2) = Nc1ccc(C[C@H](N)C(=O)O)cc1; X10 = C[C@@H](N*)[C@@H](O)c1ccccc1; NMeαMePro = CN1CCC[C@@]1(C)C(=O)*; Ac4c(3-oxa) = NC1(C(=O)O)COC1; αMeP = C[C@@]1(C(=O)O)CCCN1; dIva = CC[C@@](C)(N)C(=O)O; X1 = CN1CCC[C@]1(C)C(=O)*; NMeAib = CNC(C)(C)C(=O)O; X8 = C1=CC=CC(CCN*)C=C1; Aib = CC(C)(N)C(=O)O; X14 = c1[nH]nnc1CN*

Columns and labels:
[1] = test system: N87 (gastric cancer); assay: In vitro cell assay, MTS cell viability 96 hours after treatment; type: cell-based; conditions: read-out: N87 GMEAN IC50, N87 cells; geometric mean; cytotoxic peptides
Experimental: (§1) Cells were treated with 3-fold serially diluted antibody-drug conjugates or free compounds (i.e., no antibody conjugated to the drug) in duplicate at 10 concentrations. Cell viability was determined by CellTiter 96® AQueous One Solution Cell Proliferation MTS Assay (Promega, Madison Wis.) 96 hours after treatment. Relative cell viability was determined as percentage of untreated control.

[2] = test system: MDA-MB-361-DYT2 (breast cancer); assay: as above; type: cell-based; conditions: read-out: MDA-MB-361-DYT2 GMEAN IC50, MDA-MB-361-DYT2 cells; geometric mean; cytotoxic peptides
Experimental: as §1

## CC[C@H](C)[C@@H]([C@@H](CC(=O)N1CCC[C@H]1[C@H](OC)[C@@H](C)C(=S)N[C@@H](Cc1ccccc1)c1nccs1)OC)N(C)C(=O)[C@@H](NC(=O)[C@@H](NC)C(C)C)C(C)C [#26, N-methyl-L-valyl-N-[(3R,4S,5S)-3-methoxy-1-{(2S)-2-[(1R,2R)-1-methoxy-2-methyl-3-{[(1S)-2-phenyl-1-(1,3-thiazol-2-yl)ethyl]amino}-3-thioxopropyl]pyrrolidin-1-yl}-5-methyl-1-oxoheptan-4-yl]-N-methyl-L-valinamide]
[1]
  IC50: 0.543 nM
[2]
  IC50: 1.04 nM

## CC[C@H](C)[C@@H]([C@@H](CC(=O)N1CCC[C@H]1[C@H](OC)[C@@H](C)C(=O)N[C@H](C)[C@@H](O)c1ccccc1)OC)N(C)C(=O)[C@@H](NC(=O)C(C)(C)NC)C(C)C [#145, N,2-dimethylalanyl-N-{(1S,2R)-4-{(2S)-2-[(1R,2R)-3-{[(1R,2S)-2-hydroxy-1-methyl-2-phenylethyl]amino}-1-methoxy-2-methyl-3-oxopropyl]pyrrolidin-1-yl}-2-methoxy-1-[(1S)-1-methylpropyl]-4-oxobutyl}-N-methyl-L-valinamide] (H-[NMeAib]V[Dil][Dolaproine]-X10)
[1]
  IC50: 0.167 nM
[2]
  IC50: 0.229 nM

## CC[C@H](C)[C@@H]([C@@H](CC(=O)N1CCC[C@H]1[C@H](OC)[C@@H](C)C(=O)N[C@@H](Cc1ccccc1)C(=O)OC)OC)N(C)C(=O)[C@@H](NC(=O)[C@](C)(N)CC)C(C)C [#149, D-isovalyl-N-{(1S,2R)-4-{(2S)-2-[(1R,2R)-3-{[(1S)-1-benzyl-2-methoxy-2-oxoethyl]amino}-1-methoxy-2-methyl-3-oxopropyl]pyrrolidin-1-yl}-2-methoxy-1-[(1S)-1-methylpropyl]-4-oxobutyl}-N-methyl-L-valinamide] (H-[dIva]V[Dil][Dolaproine]F-OMe)
[2]
  IC50: 0.428 nM

## CC[C@H](C)[C@@H]([C@@H](CC(=O)N1CCC[C@H]1[C@H](OC)[C@@H](C)C(=O)N[C@@H](Cc1ccc2c(c1)CCCN2)C(=O)OC)OC)N(C)C(=O)[C@@H](NC(=O)[C@]1(C)CCCN1C)C(C)C [#207, 1,2-dimethyl-L-prolyl-N-[(3R,4S,5S)-3-methoxy-1-{(2S)-2-[(1R,2R)-1-methoxy-3-{[(2S)-1-methoxy-1-oxo-3-(1,2,3,4-tetrahydroquinolin-6-yl)propan-2-yl]amino}-2-methyl-3-oxopropyl]pyrrolidin-1-yl}-5-methyl-1-oxoheptan-4-yl]-N-methyl-L-valinamide]
[1]
  IC50: 0.626 nM

## CC[C@H](C)[C@@H]([C@@H](CC(=O)N1CCC[C@H]1[C@H](OC)[C@@H](C)C(=O)N[C@@H](Cc1ccccc1)C(=O)OC)OC)N(C)C(=O)[C@@H](NC(=O)C1(N)COC1)C(C)C [#233] (H-[Ac4c(3-oxa)]V[Dil][Dolaproine]F-OMe)
[1]
  IC50: 8.41 nM
[2]
  IC50: 5.04 nM

## CC[C@H](C)[C@@H]([C@@H](CC(=O)N1CCC[C@H]1[C@H](OC)[C@@H](C)C(=S)NCCc1ccccc1)OC)N(C)C(=O)[C@@H](NC(=O)[C@@H](NC)C(C)C)C(C)C [#36, N-methyl-L-valyl-N-{(3R,4S,5S)-3-methoxy-1-[(2S)-2-{(1R,2R)-1-methoxy-2-methyl-3-[(2-phenylethyl)amino]-3-thioxopropyl}pyrrolidin-1-yl]-5-methyl-1-oxoheptan-4-yl}-N-methyl-L-valinamide]
[1]
  IC50: 1.21 nM
[2]
  IC50: 1.11 nM

## CC[C@H](C)[C@@H]([C@@H](CC(=O)N1CCC[C@H]1[C@H](OC)[C@@H](C)C(=O)N[C@@H](Cc1ccccc1)C(=O)OC)OC)N(C)C(=O)[C@@H](NC(=O)C(C)(C)N)C(C)C [#70, 2-methylalanyl-N-[(3R,4S,5S)-3-methoxy-1-{(2S)-2-[(1R,2R)-1-methoxy-3-{[(2S)-1-methoxy-1-oxo-3-phenylpropan-2-yl]amino}-2-methyl-3-oxopropyl]pyrrolidin-1-yl}-5-methyl-1-oxoheptan-4-yl]-N-methyl-L-valinamide] (H-[Aib]V[Dil][Dolaproine]F-OMe)
[1]
  IC50: 0.327 nM
[2]
  IC50: 0.225 nM

## CC[C@H](C)[C@@H]([C@@H](CC(=O)N1CCC[C@H]1[C@H](OC)[C@@H](C)C(=S)N[C@@H](Cc1ccccc1)C(=O)OC)OC)N(C)C(=O)[C@@H](NC(=O)C(C)(C)N)C(C)C [#45, 2-methylalanyl-N-[(3R,4S,5S)-3-methoxy-1-{(2S)-2-[(1R,2R)-1-methoxy-3-{[(2S)-1-methoxy-1-oxo-3-phenylpropan-2-yl]amino}-2-methyl-3-thioxopropyl]pyrrolidin-1-yl}-5-methyl-1-oxoheptan-4-yl]-N-methyl-L-valinamide]
[1]
  IC50: 0.385 nM
[2]
  IC50: 0.415 nM

## CC[C@H](C)[C@@H]([C@@H](CC(=O)N1CCC[C@H]1[C@H](OC)[C@@H](C)C(=O)N[C@@H](Cc1ccccc1)C(=O)OC)OC)N(C)C(=O)[C@@H](NC(=O)C(C)(C)CN)C(C)C [#126, methyl N-[(2R,3R)-3-{(2S)-1-[(3R,4S,5S)-4-{[N-(3-amino-2,2-dimethylpropanoyl)-L-valyl](methyl)amino}-3-methoxy-5-methylheptanoyl]pyrrolidin-2-yl}-3-methoxy-2-methylpropanoyl]-L-phenylalaninate]
[1]
  IC50: 0.375 nM
[2]
  IC50: 0.454 nM

## CC[C@H](C)[C@@H]([C@@H](CC(=O)N1CCC[C@H]1[C@H](OC)[C@@H](C)C(=O)N[C@@H](Cc1ccccc1)c1nccs1)OC)N(C)C(=O)[C@@H](NC(=O)[C@]1(C)CCCCN1)C(C)C [#188, (2S)—N-[(2S)-1-{[(3R,4S,5S)-3-methoxy-1-{(2S)-2-[(1R,2R)-1-methoxy-2-methyl-3-oxo-3-{[(1S)-2-phenyl-1-(1,3-thiazol-2-yl)ethyl]amino}propyl]pyrrolidin-1-yl}-5-methyl-1-oxoheptan-4-yl](methyl)amino}-3-methyl-1-oxobutan-2-yl]-2-methylpiperidine-2-carboxamide]
[2]
  IC50: 0.404 nM

## CC[C@H](C)[C@@H]([C@@H](CC(=O)N1CCC[C@H]1[C@H](OC)[C@@H](C)C(=O)N[C@H](C(=O)OC)[C@@H]1Cc2ccccc21)OC)N(C)C(=O)[C@@H](NC(=O)C(C)(C)N)C(C)C [#227] (H-[Aib]V[Dil][Dolaproine][X12]-OMe)
[1]
  IC50: 19 nM
[2]
  IC50: 12.9 nM

## CC[C@H](C)[C@@H]([C@@H](CC(=O)N1CCC[C@H]1[C@H](OC)[C@@H](C)C(=O)NCCC1C=CC=CC=C1)OC)N(C)C(=O)[C@@H](NC(=O)[C@]1(C)CCCN1)C(C)C [#182, 2-methyl-L-prolyl-N-[(3R,4S,5S)-1-{(2S)-2-[(1R,2R)-3-{[2-(cyclohepta-2,4,6-trien-1-yl)ethyl]amino}-1-methoxy-2-methyl-3-oxopropyl]pyrrolidin-1-yl}-3-methoxy-5-methyl-1-oxoheptan-4-yl]-N-methyl-L-valinamide] (H-[αMeP]V[Dil][Dolaproine]-X8)
[1]
  IC50: 0.148 nM
[2]
  IC50: 0.122 nM

## CC[C@H](C)[C@@H]([C@@H](CC(=O)N1CCC[C@H]1[C@H](OC)[C@@H](C)C(=O)N[C@@H](Cc1ccccc1)C(=O)O)OC)N(C)C(=O)[C@@H](NC(=O)[C@@]1(C)CCCN1C)C(C)C [#153, 1,2-dimethyl-D-prolyl-N-{(1S,2R)-4-{(2S)-2-[(1R,2R)-3-{[(1S)-1-carboxy-2-phenylethyl]amino}-1-methoxy-2-methyl-3-oxopropyl]pyrrolidin-1-yl}-2-methoxy-1-[(1S)-1-methylpropyl]-4-oxobutyl}-N-methyl-L-valinamide] (X1-V[Dil][Dolaproine]F-OH)
[1]
  IC50: 47.3 nM
[2]
  IC50: 91.3 nM

## CC[C@H](C)[C@@H]([C@@H](CC(=O)N1CCC[C@H]1[C@H](OC)[C@@H](C)C(=O)NCCC1C=CC=CC=C1)OC)N(C)C(=O)[C@@H](NC(=O)C(C)(C)N)C(C)C [#66, 2-Methylalanyl-N-[(3R,4S,5S)-1-{(2S)-2-[(1R,2R)-3-{[2-(cyclohepta-2,4,6-trien-1-yl)ethyl]amino}-1-methoxy-2-methyl-3-oxopropyl]pyrrolidin-1-yl}-3-methoxy-5-methyl-1-oxoheptan-4-yl]-N-methyl-L-valinamide] (H-[Aib]V[Dil][Dolaproine]-X8)
[2]
  IC50: 0.334 nM

## CC[C@H](C)[C@@H]([C@@H](CC(=O)N1CCC[C@H]1[C@H](OC)[C@@H](C)C(=O)N[C@@H](Cc1ccccc1)C(=O)NCc1c[nH]nn1)OC)N(C)C(=O)[C@@H](NC(=O)C(C)(C)NC)C(C)C [#240] (H-[NMeAib]V[Dil][Dolaproine]F-X14)
[1]
  IC50: 19.9 nM
[2]
  IC50: 23.5 nM

## CC[C@H](C)[C@@H]([C@@H](CC(=O)N1CCC[C@H]1[C@H](OC)[C@@H](C)C(=O)N[C@H](C)[C@@H](O)c1ccccc1)OC)N(C)C(=O)[C@@H](NC(=O)[C@]1(C)CCCN1)C(C)C [#134, 2-methyl-L-prolyl-N-[(3R,4S,5S)-1-{(2S)-2-[(1R,2R)-3-{[(1S,2R)-1-hydroxy-1-phenylpropan-2-yl]amino}-1-methoxy-2-methyl-3-oxopropyl]pyrrolidin-1-yl}-3-methoxy-5-methyl-1-oxoheptan-4-yl]-N-methyl-L-valinamide] (H-[αMeP]V[Dil][Dolaproine]-X10)
[1]
  IC50: 0.115 nM
[2]
  IC50: 0.134 nM

## CC[C@H](C)[C@@H]([C@@H](CC(=O)N1CCC[C@H]1[C@H](OC)[C@@H](C)C(=O)N[C@@H](Cc1ccc(O)cc1)C(=O)OC)OC)N(C)C(=O)[C@@H](NC(=O)C(C)(C)NC)C(C)C [#243] (H-[NMeAib]V[Dil][Dolaproine]Y-OMe)
[1]
  IC50: 1.3 nM
[2]
  IC50: 1.28 nM

## CC[C@H](C)[C@@H]([C@@H](CC(=O)N1CCC[C@H]1[C@H](OC)[C@@H](C)C(=O)N[C@@H](Cc1ccc(N)cc1)C(=O)OC)OC)N(C)C(=O)[C@@H](NC(=O)[C@]1(C)CCCN1C)C(C)C [#208, 1,2-dimethyl-L-prolyl-N-[(3R,4S,5S)-1-{(2S)-2-[(1R,2R)-3-{[(2S)-3-(4-aminophenyl)-1-methoxy-1-oxopropan-2-yl]amino}-1-methoxy-2-methyl-3-oxopropyl]pyrrolidin-1-yl}-3-methoxy-5-methyl-1-oxoheptan-4-yl]-N-methyl-L-valinamide] (NMeαMePro-V[Dil][Dolaproine][Phe(4-NH2)]-OMe)
[1]
  IC50: 0.379 nM
[2]
  IC50: 0.336 nM
